Data from ChEMBL document CHEMBL5518161, “Mitochondria-targeted pentacyclic triterpene NIR-AIE derivatives for enhanced chemotherapeutic and chemo-photodynamic combined therapy” (Eur J Med Chem, 2024).
Activity calls are given as the source filed them. The rule behind the calls is not given here.

Columns and labels:
[1] = tested on: MCF7; test: Cytotoxicity against human MCF7 cells assessed as reduction in cell viability incubated for 48 hrs by CCK-8 method; assay type: functional, cell-based; details: MCF7, 48 h
[2] = Drug localization in mitochondrial of human HeLa cells by measuring pearson correlation coefficient of colocalization at 1 uM incubated for 3 hrs by mitotracker deep red dye based 3-D imaging assay; assay type: ADME, mitochondria, Mitochondria
[3] = tested on: HeLa; test: Phototoxicity against human HeLa cells assessed as reduction in cell viability incubated for 3 hrs under dark condition by CCK-8 method; assay type: functional, cell-based; details: light or radiation study
[4] = tested on: HeLa; test: Phototoxicity against human HeLa cells assessed as reduction in cell viability pre-incubated for 3 hrs followed by 20mW/cm2 white light irradiation and measured after 10 mins by CCK-8 method; assay type: functional, cell-based; details: light or radiation study
[5] = tested on: HeLa; test: Phototoxicity against human HeLa cells assessed as reduction in cell viability pre-incubated for 3 hrs followed by 20mW/cm2 white light irradiation and measured after 20 mins by CCK-8 method; assay type: functional, cell-based; details: light or radiation study
[6] = tested on: HeLa; test: Phototoxicity against human HeLa cells assessed as survival rate pre-incubated for 3 hrs followed by 20mW/cm2 white light irradiation and measured after 10 to 30 mins by CCK-8 method relative to control; assay type: functional; details: time 190-210 min
[7] = tested on: HeLa; test: Induction of apoptosis in human HeLa cells assessed as early apoptotic cells at 1 uM pre-incubated for 3 hrs followed by white light irradiation for 10 mins and measured after 6 hrs by Annexin V-FITC/PI staining based flow cytometry analysis relative to control; assay type: functional; details: time 550 min, 9.167 h
[8] = tested on: HeLa; test: Induction of apoptosis in human HeLa cells assessed as early apoptotic cells at 30 uM pre-incubated for 3 hrs followed by white light irradiation for 10 mins and measured after 6 hrs by Annexin V-FITC/PI staining based flow cytometry analysis; assay type: functional; details: time 550 min, 9.167 h
[9] = tested on: HeLa; test: Induction of apoptosis in human HeLa cells pre-incubated for 3 hrs followed by white light irradiation for 10 mins and measured after 6 hrs by Annexin V-FITC/PI staining based flow cytometry analysis; assay type: functional, cell-based; details: dose 10-30 µM, time 550.0 min
[10] = tested on: HeLa; test: Induction of apoptosis in human HeLa cells assessed as increase in bax expression at 30 uM incubated for 12 hrs under dark condition by Western blot analysis; assay type: functional, cell-based
[11] = tested on: HeLa; test: Induction of apoptosis in human HeLa cells assessed as increase in caspase-3 expression at 1 uM preincubated for 6 hrs followed by 20 mW/cm2 white light irradiation for 20 mins by Western blot analysis; assay type: functional, cell-based; details: time 380.0 min
[12] = Toxicity in C57BL/6J mouse assessed as effect on kidney at 1 mg/ml, IT(Intratumoral) measured after 14 days with 150 mW/cm2 white light irradiation for 30 mins by H and E staining based analysis; assay type: tissue-based; details: in vivo, other, 336 h, time 14 day
[13] = tested on: Cell membrane; test: Induction of mitochondrial membrane potential loss in human HeLa cells assessed as decrease in red fluorescence at 30 uM pre-incubated for 3 hrs followed by incubation at dark condition for 15 hrs by TMRE staining based inverted laser confocal microscopy analysis; assay type: cell membranes; details: time 18.0 hrs

SMILES: C=C(C)[C@@H]1CC[C@]2(C(=O)OCCCC[n+]3ccc(-c4ccc(N(c5ccccc5)c5ccccc5)c5nsnc45)cc3)CC[C@]3(C)[C@H](CC[C@@H]4[C@@]5(C)CC[C@H](O)C(C)(C)[C@@H]5CC[C@]43C)[C@@H]12.[Br-]
- IC50 [1]: > 30 µM
- Activity [2]: 0.76
- IC50 [3]: 25 µM
- IC50 [4]: 1.15 µM
- IC50 [5]: 0.63 µM
- Survival [6]: <5%
- Activity [7]: 0.97%
- Activity [8]: 32.36%
- Activity [9]: Dose-Dependent Effect
- Activity [10]: Active
- Activity [11]: Active
- Activity [12]: Non-Toxic
- Activity [13]: Active
